ChEMBL document CHEMBL1149593, “Mechanism of the melanogenesis stimulation activity of (-)-cubebin in murine B16 melanoma cells” (2007)
Active and inactive are the calls of the source. The rule behind the calls is not given here.

Tests used:
B16 [1] = assay: Increase in tyrosinase activity in mouse B16 cells at 10 uM after 24 to 96 hrs; assay type: functional, cell-based
B16 [2] = assay: Increase in melanin level in mouse B16 cells at 10 uM after 48 to 96 hrs; assay type: functional, cell-based
B16 [3] = assay: Increase in tyrosinase mRNA expression in mouse B16 cells at 10 uM after 12 hrs; assay type: functional
B16 [4] = assay: Melanogenesis stimulation activity in mouse B16 cells at 2 to 10 uM; assay type: functional, cell-based
[5] = molecular target: MAP kinase p38 (Mus musculus) (UniProt P47811+O08911+Q9WUI1+Q9Z1B7); assay: Increase in p38 MAPK phosphorylation in mouse B16 cells at 4 to 8 hrs; assay type: cell-based
B16 [6] = assay: Increase in tyrosinase expression in mouse B16 cells at 10 uM after 48 hrs; assay type: functional
B16 [7] = assay: Induction of tyrosinase mRNA expression in mouse B16 cells in presence of SB-203580; assay type: functional, cell-based

O[C@H]1OC[C@H](Cc2ccc3c(c2)OCO3)[C@H]1Cc1ccc2c(c1)OCO2
Activity (B16 [1]): Active
Activity (B16 [2]): Active
Fold change (B16 [3]): 1.8
Activity (B16 [4]): Active
Activity [5]: Active
Fold change (B16 [6]): 6.2
Activity (B16 [7]): inactive
